Data as given in publication PMC4756352, “Atypical natural killer T-cell receptor recognition of CD1d–lipid antigens” (Nature Communications, 2016).

What was measured:
human CD1d [1] = target: T1, human CD1d (Homo sapiens, UniProt P15813); assay: lipid-loaded CD1d tetramer staining of TCR-transduced Jurkat cells; assay type: cell-based; conditions: binding seen through TCR recognition (9B1, 9B2 lines)
T1 construct: soluble CD1d with C-terminal BirA biotin ligase tag and B2M, baculovirus/High Five insect cells, IMAC and gel filtration; biotinylated; with Beta-2-microglobulin
T1 sequence (P15813 20-295 limits assumed): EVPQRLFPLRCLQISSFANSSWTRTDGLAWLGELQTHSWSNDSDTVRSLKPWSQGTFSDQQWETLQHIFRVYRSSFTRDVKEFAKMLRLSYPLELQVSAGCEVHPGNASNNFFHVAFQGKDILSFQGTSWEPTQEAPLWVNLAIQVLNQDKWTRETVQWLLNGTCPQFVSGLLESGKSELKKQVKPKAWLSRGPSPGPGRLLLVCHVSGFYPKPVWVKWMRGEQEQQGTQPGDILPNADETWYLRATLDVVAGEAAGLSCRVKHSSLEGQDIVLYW
T1 sequence (P61769 21-119 partner): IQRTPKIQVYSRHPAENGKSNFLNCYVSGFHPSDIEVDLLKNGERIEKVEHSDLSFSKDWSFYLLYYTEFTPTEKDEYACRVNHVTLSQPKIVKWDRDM

human CD1d [2] = target: T1, human CD1d; assay: SPR, lipid-loaded CD1d immobilised, TCR injected; conditions: lipid loaded at 3-6 fold molar excess overnight; binding seen through TCR recognition; HBS-T pH 7.4, 25 °C

| SMILES | lipid-loaded CD1d tetramer staining of TCR-transduced Jurkat cells (human CD1d [1]) | SPR, lipid-loaded CD1d immobilised, TCR injected (human CD1d [2]) |
| --- | --- | --- |
| CCCCCCCCCCCCC/C=C/[C@@H](O)[C@H](CO[C@@H]1O[C@H](CO)[C@H](O)[C@H](O)[C@H]1O)NC(=O)CCCCCCCCCCC [β-GalCer (C12)] | These 9B1 and 9B2 TCRs also reacted to a lesser extent with β-GalCer | – |
| CCCCCCCCCCCCCCCCCCCCCCCCCC(=O)N[C@@H](CO[C@H]1O[C@H](CO)[C@H](O)C[C@H]1O)[C@H](O)CCCCCCCCCCCCCCC [3′-deoxy-α-GalCer] | – | affinity of the 9C1 and 9B2 TCRs towards CD1d-3′-deoxy-α-GalCer |
| CCCCCCCCCCCCCCCCCCCCCCCCCC(=O)N[C@@H](CO[C@H]1O[C@H](CO)[C@@H](O)[C@H](O)[C@H]1O)[C@H](O)[C@H](O)CCCCCCCCCCCCCC [α-GlcCer (C26:0)] | – | yet was well-tolerated by NKT15 TCR |
| CCCCCCCC/C=C\CCCCCCCCCCCCCC(=O)N[C@@H](CO[C@@H]1O[C@H](CO)[C@@H](O)[C@H](O)[C@H]1O)[C@H](O)/C=C/CCCCCCCCCCCCC [β-GlcCer (C24:1)] | we detected clear reactivity of Jurkat.9B1 and Jurkat.9B2 cell lines to β-GlcCer | – |
| CCCCCCCCCCCCCCCCCCCCCCCCCC(=O)N[C@@H](CO[C@H]1O[C@H](CO)C[C@H](O)[C@H]1O)[C@H](O)CCCCCCCCCCCCCCC | – | no negative impact of this analogue on NKT15 or 9B2 TCR binding |
